One experiment has as its target T1, Gelatinase (MMP-2) (Homo sapiens, UniProt P08253).
T1 sequence (P08253 110-660): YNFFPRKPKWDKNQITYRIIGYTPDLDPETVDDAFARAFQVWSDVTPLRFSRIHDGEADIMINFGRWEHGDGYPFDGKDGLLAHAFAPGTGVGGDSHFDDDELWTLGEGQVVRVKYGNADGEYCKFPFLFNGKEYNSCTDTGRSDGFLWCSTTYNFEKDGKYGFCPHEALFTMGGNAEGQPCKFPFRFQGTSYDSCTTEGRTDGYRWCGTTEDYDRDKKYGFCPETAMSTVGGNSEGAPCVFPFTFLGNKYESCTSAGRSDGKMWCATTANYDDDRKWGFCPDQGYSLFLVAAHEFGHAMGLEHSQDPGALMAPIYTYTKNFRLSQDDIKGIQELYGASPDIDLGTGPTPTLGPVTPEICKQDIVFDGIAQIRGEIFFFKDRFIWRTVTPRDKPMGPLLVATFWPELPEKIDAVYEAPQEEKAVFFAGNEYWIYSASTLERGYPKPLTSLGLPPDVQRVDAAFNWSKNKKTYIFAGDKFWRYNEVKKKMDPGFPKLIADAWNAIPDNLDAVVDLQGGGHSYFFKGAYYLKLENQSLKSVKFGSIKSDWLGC
Description: Gelatinase (MMP-2) inhibitory activity, fluorogenic peptide substrate assay. The format is biochemical.

A further experiment concerns the target Collagenase-3 (MMP-13) (Homo sapiens, UniProt P45452). Description: Collagenase-3 (MMP-13) inhibitory activity, fluorogenic peptide substrate assay. The format is biochemical.
[1] abbreviates: substrate 5 μM, 60 min preincubation, 20-25° C., read-out: MMP2 IC50.
[2] abbreviates: recombinant pro-collagenase-3 activated with 1 mM APMA, read-out: MMP13 IC50.

Like-named read-outs stand apart in the source and are kept apart here.

Description for Collagenase-3 (MMP-13): (§1) Stock solutions of inhibitors (0.03 mM-3 mM) are also prepared in DMSO. The inhibitors are diluted into the assay solutions, and the controls use an equal volume of DMSO so that the final DMSO concentration from the inhibitor and substrate dilutions in all assays is 1.0%. Assays are performed in an assay buffer (100 mM sodium chloride, 10 μM ZnCl. Sub 2, 10 mM CaCl2, 100 mM Tris-Cl pH7.5, 0.05% Brij-35), containing 1.0% DMSO from the substrate and inhibitor additions. The substrate concentration used in the assays is 5 μM. The assays are carried out at 20-25° C. […] The reaction mixtures are added in duplicate into appropriate wells of a 384-well assay plate. The reaction mixtures are preincubated with the inhibitors for 60 minutes The reactions are started by the addition of MMP substrate, and the fluorescence intensity changes are measured after 60 minutes The apparent enzyme activity in the presence of an inhibitor is then compared with that in the absence of any inhibitor to determine the inhibition effect of the inhibitor.
Collagenase-3 (MMP-13) inhibitory activity is determined as described above. Recombinant pro-collagenase-3 is activated with 1 mM APMA, and stored in the assay buffer after extensive dialysis in the assay buffer.
Description for Gelatinase (MMP-2): as §1

For orientation: IC50 means the concentration at which inhibition is half-maximal. On to `CS(=O)(=O)CCC(NS(=O)(=O)c1ccc2ccccc2c1)C(=O)NO` (stereo not drawn) [Example 18, N-Hydroxy-4-methanesulfonyl-2-(naphthalene-2-sulfonylamino)-butyramide], for which the IC50 worked out at 157 nM at Gelatinase (MMP-2) (setting [1]) and 153 nM on Collagenase-3 (MMP-13) (setting [2]).

As to `C=CC[C@@H](NS(=O)(=O)c1ccc2ccccc2c1)C(=O)NO` [Example 3, (R)-2-(Naphthalene-2-sulfonylamino)-pent-4-enoic acid hydroxyamide], the values for the IC50 at Gelatinase (MMP-2) (setting [1]) and on Collagenase-3 (MMP-13) (setting [2]) were 22.2 nM and 35.6 nM, respectively.

`COc1c(S(=O)(=O)N(CCC(C)C)[C@@H](C(=O)NO)C(C)C)ccc2ccccc12` [Example 79, (R)—N-Hydroxy-2-[(1-methoxy-naphthalene-2-sulfonyl)-(3-methyl-butyl)-amino]-3-methyl-butyramide]: the IC50 amounted to 51.8 nM at Gelatinase (MMP-2) (setting [1]) and 1.1 nM on Collagenase-3 (MMP-13) (setting [2]).

With `CC(C)[C@H](C(=O)NO)N(CCOc1ccc(Cl)cc1)S(=O)(=O)c1ccc2ccccc2c1` [Example 58, (R)-2-[[2-(4-Chloro-phenoxy)-ethyl]-(naphthalene-2-sulfonyl)-amino]-N-hydroxy-3-methyl-butyramide], the half-maximal inhibitory concentration (IC50) was 2650 nM on Gelatinase (MMP-2) (setting [1]) and 116 nM at Collagenase-3 (MMP-13) (setting [2]).

Consider `CC(C)CCN([C@@H](C(=O)NO)C(C)C)S(=O)(=O)c1ccc2cc(N)ccc2c1` [Example 51, 2-[(6-Amino-naphthalene-2-sulfonyl)-(3-methyl-butyl)-amino]-N-hydroxy-3-methyl-butyramide], for which the IC50 at Gelatinase (MMP-2) (setting [1]) was 1130 nM; on Collagenase-3 (MMP-13) (setting [2]), 90 nM.

In the case of `O=C(NO)[C@H]1CC=C(c2ccccc2)CN1S(=O)(=O)c1ccc2ccccc2c1` [Example 39, (R)-1-(Naphthalene-2-sulfonyl)-5-phenyl-1,2,3,6-tetrahydro-pyridine-2-carboxylic acid hydroxyamide], the IC50 on Gelatinase (MMP-2) (setting [1]) was found to be 27.8 nM; at Collagenase-3 (MMP-13) (setting [2]), 1.4 nM.

As to `COc1cccc(OCCN([C@@H](C(=O)NO)C(C)C)S(=O)(=O)c2ccc3ccccc3c2)c1` [Example 46, (R)—N-Hydroxy-2-[[2-(3-methoxy-phenoxy)-ethyl]-(naphthalene-2-sulfonyl)-amino]-3-methyl-butyramide], the values for the IC50 at Gelatinase (MMP-2) (setting [1]) and at Collagenase-3 (MMP-13) (setting [2]) were 655 nM and 13.9 nM, respectively.

Regarding `Cc1ccc2ccc(S(=O)(=O)N(CCC(C)C)[C@@H](C(=O)NO)C(C)C)cc2c1` [Example 85, N-isoamyl-N-(6-methylnaphthalene-2-sulfonyl)-D-valine hydroxamic acid], the IC50 was found to be 3350 nM at Gelatinase (MMP-2) (setting [1]) and 134 nM at Collagenase-3 (MMP-13) (setting [2]).

On to `CCOc1ccc2ccc(S(=O)(=O)N(Cc3ccccc3)[C@@H](C(=O)NO)C(C)C)cc2c1` [Example 27, 2-[Benzyl-(7-ethoxy-naphthalene-2-sulfonyl)-amino]-N-hydroxy-3-methyl-butyramide], for which the IC50 is 4400 nM at Gelatinase (MMP-2) (setting [1]) and 535 nM at Collagenase-3 (MMP-13) (setting [2]).

On to `CCOc1ccc2ccc(S(=O)(=O)N(Cc3cccnc3)[C@@H](C(=O)NO)C(C)C)cc2c1` [Example 68, 2-[(7-Ethoxy-naphthalene-2-sulfonyl)-pyridin-3-ylmethyl-amino]-N-hydroxy-3-methyl-butyramide], for which the values for the IC50 on Gelatinase (MMP-2) (setting [1]) and at Collagenase-3 (MMP-13) (setting [2]) were 976 nM and 28.7 nM, respectively.

As to `CC(=O)Nc1ccc2cc(S(=O)(=O)N(CCCc3ccccc3)[C@@H](C(=O)NO)C(C)C)ccc2c1` [Example 34, 2-[(6-Acetylamino-naphthalene-2-sulfonyl)-(3-phenyl-propyl)-amino]-N-hydroxy-3-methyl-butyramide], the IC50 at Gelatinase (MMP-2) (setting [1]) amounted to 2900 nM; on Collagenase-3 (MMP-13) (setting [2]), 1310 nM.

In the case of `C#CC[C@H](C(=O)NO)N(CC=C)S(=O)(=O)c1ccc2ccccc2c1` [Example 8, (R)-2-[Allyl-(naphthalene-2-sulfonyl)-amino]-pent-4-ynoic acid hydroxyamide], the IC50 was determined as 125 nM at Gelatinase (MMP-2) (setting [1]) and 3.5 nM on Collagenase-3 (MMP-13) (setting [2]).

In the case of `C=CCOc1ccc2cc(S(=O)(=O)N(CCC(C)C)[C@@H](C(=O)NO)C(C)C)ccc2c1` [Example 66, 2-[(6-Allyloxy-naphthalene-2-sulfonyl)-(3-methyl-butyl)-amino]-N-hydroxy-3-methyl-butyramide], the IC50 at Gelatinase (MMP-2) (setting [1]) came to 128 nM; on Collagenase-3 (MMP-13) (setting [2]), 7.3 nM.

With `CC(C)[C@H](C(=O)NO)N(CCOc1cccc(Cl)c1)S(=O)(=O)c1ccc2ccccc2c1` [Example 62, N-(2-(3-chlorophenoxy)ethyl)-N-(naphthalene-2-sulfonyl)-D-valine hydroxamic acid], the results for the IC50 on Gelatinase (MMP-2) (setting [1]) and on Collagenase-3 (MMP-13) (setting [2]) were 3890 nM and 138 nM, respectively.

As for `C=CCN([C@@H](C(=O)NO)C(C)C)S(=O)(=O)c1ccc2ccccc2c1` [Example 24, (R)-2-[Allyl-(naphthalene-2-sulfonyl)-amino]-N-hydroxy-3-methyl-butyramide], the IC50 on Gelatinase (MMP-2) (setting [1]) came out at 90.4 nM; on Collagenase-3 (MMP-13) (setting [2]) it was 3.4 nM.

As for `O=C(NO)[C@H]1CC=CCN1S(=O)(=O)c1cnc2ccccc2c1` [Example 72, (R)-1-(Quinoline-3-sulfonyl)-1,2,3,6-tetrahydro-pyridine-2-carboxylic acid hydroxyamide], the figures for the IC50 at Gelatinase (MMP-2) (setting [1]) and at Collagenase-3 (MMP-13) (setting [2]) were 853 nM and 95.7 nM, respectively.

`O=C(NO)[C@H]1CC=CCN1S(=O)(=O)c1ccc2ncccc2c1` [Example 63, (R)-1-(Quinoline-6-sulfonyl)-1,2,3,6-tetrahydro-pyridine-2-carboxylic acid hydroxyamide]: the IC50 on Gelatinase (MMP-2) (setting [1]) worked out at 54.7 nM; on Collagenase-3 (MMP-13) (setting [2]), 10.5 nM.

As for `O=C(NO)[C@H]1CC=CCN1S(=O)(=O)c1ccc2ccccc2c1` [Example 26, (R)-1-(Naphthalene-2-sulfonyl)-1,2,3,6-tetrahydro-pyridine-2-carboxylic acid hydroxyamide], the IC50 on Gelatinase (MMP-2) (setting [1]) came out at 18.6 nM; on Collagenase-3 (MMP-13) (setting [2]), 1.7 nM.

As for `CC(C)(C)[C@@H](NS(=O)(=O)c1ccc2ncccc2c1)C(=O)NO` [Example 92, (R)—N-Hydroxy-3,3-dimethyl-2-(quinoline-6-sulfonylamino)-butyramide], the IC50 worked out at 765 nM at Gelatinase (MMP-2) (setting [1]) and 225 nM at Collagenase-3 (MMP-13) (setting [2]).

Consider `CC(C)CCN([C@@H](C(=O)NO)C(C)C)S(=O)(=O)c1ccc2ccccc2c1Cl` [Example 80, 2-[(1-Chloro-naphthalene-2-sulfonyl)-(3-methyl-butyl)-amino]-N-hydroxy-3-methyl-butyramide], for which the IC50 on Gelatinase (MMP-2) (read-out: IC50 (Gelatinase (MMP-2) inhibitory activity)) is 55 nM; on Gelatinase (MMP-2) (setting [1]) it was 779 nM; at Collagenase-3 (MMP-13) (read-out: IC50 (Collagenase-3 (MMP-13) inhibitory activity)), approximately 113 nM; at Collagenase-3 (MMP-13) (setting [2]), 118 nM.

`O=C(NO)[C@H]1C2CCC(CC2)N1S(=O)(=O)c1ccc2ccccc2c1` [Example 91, (R)-2-(Naphthalene-2-sulfonyl)-2-aza-bicyclo[2.2.2]octane-3-carboxylic acid hydroxyamide]: the figures for the IC50 on Gelatinase (MMP-2) (setting [1]) and at Collagenase-3 (MMP-13) (setting [2]) were 22200 nM and 6950 nM, respectively.

For `Cc1ccc(C)c(OCCN([C@@H](C(=O)NO)C(C)C)S(=O)(=O)c2ccc3ccccc3c2)c1C` [Example 75, N-(2-(2,3,6-trimethylphenoxy)ethyl)-N-(naphthalene-2-sulfonyl)-D-valine hydroxamic acid], the results for the IC50 at Gelatinase (MMP-2) (setting [1]) and at Collagenase-3 (MMP-13) (setting [2]) were 3110 nM and 67.3 nM, respectively.

In the case of `O=C(NO)C(NS(=O)(=O)c1ccc2ccccc2c1)C1CCOCC1` (stereo not drawn) [Example 11, N-Hydroxy-2-(naphthalene-2-sulfonylamino)-2-(tetrahydro-pyran-4-yl)-acetamide], the IC50 came to 92.7 nM at Gelatinase (MMP-2) (setting [1]) and 50.9 nM on Collagenase-3 (MMP-13) (setting [2]).

As to `CC(C)CCN([C@@H](C(=O)NO)C(C)C)S(=O)(=O)c1nc2ccccc2s1` [Example 98, (R)-2-[(Benzothiazole-2-sulfonyl)-(3-methyl-butyl)-amino]-N-hydroxy-3-methyl-butyramide], the half-inhibitory concentration (IC50) on Gelatinase (MMP-2) (setting [1]) stood at 713 nM; at Collagenase-3 (MMP-13) (setting [2]), 63 nM.

In the case of `CC(C)CCN([C@@H](C(=O)NO)C(C)C)S(=O)(=O)c1ccc2ccccc2c1O` [Example 1, (R)—N-Hydroxy-2-[(1-hydroxy-naphthalene-2-sulfonyl)-(3-methyl-butyl)-amino]-3-methyl-butyramide], the IC50 on Gelatinase (MMP-2) (setting [1]) was more than 3000 nM; on Collagenase-3 (MMP-13) (setting [2]), 672 nM.

For the molecule `O=C(NO)[C@H]1CCCCN1S(=O)(=O)c1ccc2ccccc2c1` [Example 9, (R)-1-(Naphthalene-2-sulfonyl)-piperidine-2-carboxylic acid hydroxyamide], the IC50 was 48.8 nM at Gelatinase (MMP-2) (setting [1]) and 4.9 nM on Collagenase-3 (MMP-13) (setting [2]).

As for `CC(C)C[C@@H](NS(=O)(=O)c1ccc2ccccc2c1)C(=O)NO` [Example 5, 4-Methyl-2-(naphthalene-2-sulfonylamino)-pentanoic acid hydroxyamide], the IC50 came out at 57.5 nM on Gelatinase (MMP-2) (setting [1]) and 40.5 nM on Collagenase-3 (MMP-13) (setting [2]).

`CC1=CC[C@H](C(=O)NO)N(S(=O)(=O)c2ccc3ccccc3c2)C1` [Example 60, (R)-5-Methyl-1-(naphthalene-2-sulfonyl)-1,2,3,6-tetrahydro-pyridine-2-carboxylic acid hydroxyamide]: the IC50 at Gelatinase (MMP-2) (setting [1]) came to 12.5 nM; at Collagenase-3 (MMP-13) (setting [2]), 0.9 nM.

On to `CC(C)CCOc1ccc2ccc(S(=O)(=O)N(CCC(C)C)[C@@H](C(=O)NO)C(C)C)cc2c1` [Example 86, (R)—N-Hydroxy-3-methyl-2-[[7-(3-methyl-butoxy)-naphthalene-2-sulfonyl]-(3-methyl-butyl)-amino]-butyramide], for which the IC50 at Gelatinase (MMP-2) (setting [1]) is more than 10000 nM; at Collagenase-3 (MMP-13) (setting [2]) it was 3250 nM.

These data come from patent publication US8841291B2, “Selective hydroxamic acid based MMP-12 and MMP-13 inhibitors” (Novartis AG, priority 2008, dated 2014).
